Legend:
Assay type in all cases: cell-based
[1] = Celltiter Glo viability assay, HEK293; settings: human, HEK293 cells; HEK293, 72 h of compound exposure; read-out: Cytotoxicity Assay Mean EC50
Text: (§1) The HTS approach using the bioluminescent N-linked glycosylation reporter (CCR 2011) in D54-ERLucT and D54-LucT cells has been previously described (Bennett, et al., Transl Oncol 2013, 6, 382-391). Briefly, the primary cell-based screen detects site occupancy of NLG sequons using a modified luciferase protein translated into the ER. […] The methodology for the primary (D54-ERlucT), secondary (D54-LucT), and tertiary (luciferase inhibition) screens as well and toxicity assays with CelltitreGlo are deposited in Pubchem (AID 588693).
(§2) To better understand the connection between structure and activity, analogs were prepared and tested in the D54-ERLucT cell based assay for inhibition of N-linked glycosylation (FIG. 1B). The assay was used to estimate and compare AC40 values among analogs and to guide the design of improved compounds that inhibited N-linked glycosylation. This effort generated 36 unique compounds with modifications to the amine component of the sulfonamide functionality (red), the pyrrolidine moiety (blue) or the methylaminothiazole group (green). Generally, incorporation of larger sulfonamides (i.e., larger secondary amines appended to the sulphone) was not well tolerated, resulting in erosion of potency (7 analogs). However, steric interactions could be mitigated by the introduction of a hydrogen bond accepting oxygen in a larger cyclic amine. Thus, morpholine was determined to be an acceptable surrogate for the dimethylamine component of the sulfonamide (FIGS. 1A-1D). The pyrrolidine group (blue) was replaced with various alkyl, cycloalkyl, and amine groups (7 compounds). The aminothiazole moiety was derivatized most extensively of all three regions (green highlighted area, 22 analogs). […] Analogs with the highest potency in the luciferase assay were retested with western blot analysis to insure that measurements of luciferase activation corresponded to loss of N-linked glycosylation.

HEK293 cells = experiment: Celltiter Glo viability assay, HEK293; settings: HEK293 EC50 over NLG AC40
Text: as §1, §2

A549 cells = experiment: Apoptosis by flow cytometry (Annexin-V, 7-AAD), A549; settings: A549, NGI-1 10 μM for 2 or 5 days, or Tn 1 μM
Procedure: Analysis of apoptosis susceptibility in A549 and PC9 NSCLC cell lines followed treatment with NGI-1 10 μM or Tn 1 μM for 2 days was done by flow cytometry after staining the cells with Annexin-V (early apoptosis) and 7-AAD (viability dye). […] FIG. 9C: Western blot of BIP protein for A549 and PC9 cells after treatment with 10 μM NGI-1 for 6, 12 or 24 h. The expression of GAPDH was used as a loading control.

EGFR = EGFR western blot gel mobility, H3255 cells; settings: lung adenocarcinoma cells, 10 μM NGI-1, 24 h
Procedure: FIGS. 3A-3F illustrate the finding that NGI-1 disrupts EGFR glycosylation and cell surface expression. FIG. 3A illustrates EGFR western blots from H3255 treated with or without 10 μM NGI-1 for 24 h. Molecular weight size shifts are compared to PNGase digestion and tunicamycin treatment alone. FIG. 3B illustrates EGFR localization in H3255 cells after 24 h 10 μM NGI-1 treatment analyzed by western blot. Plasma membrane proteins present on the surface of H3255 cells were biotinylated using a non-permeable form of biotin, sulfo-NHS—SS-biotin, and precipitated by streptavidin agarose beads. Biotin-labeled plasma membrane proteins and the fraction of non-biotinylated proteins were subjected to SDS-PAGE and analyzed by western blot against EGFR. FIG. 3C illustrates EGFR localization in H3255 cells after 24 h 10 μM NGI-1 treatment analyzed by confocal microscopy. H3255 cells were subjected to immunofluorescence for EGFR protein (red) counterstained with (CRT; green) and colocalization was determined by confocal microscopy. Nuclei were counterstained with ToPro3 (cyan). […] Bar, 10 μm. FIG. 3D illustrates quantification of colocalization using Image J Colormap Software. […] ITB1 localization after 10 μM NGI-1 for 48 h analyzed by (FIG. 3E) surface biotinylation (FIG. 3F) confocal microscopy (green). […]

Cc1cnc(NC(=O)c2cc(S(=O)(=O)N(C)C)ccc2N2CCCC2)s1 [NGI-1, 5-(N,N-Dimethylsulfamoyl)-N-(5-methylthiazol-2-yl)-2-(pyrrolidin-1-yl)benzamide]
EC50 at 72 h [1]: > 30 µM
Selectivity (EC50/AC40) (HEK293 cells): >172
induction of apoptosis (A549 cells): did not induce apoptosis
EGFR N-linked glycosylation (molecular weight on SDS-PAGE) (EGFR): blocked EGFR N-linked glycosylation
